Experimental data published in publication PMC3808368 (2013).

Columns and labels:
[1] = test system: ATP aptamer (ATP aptamer G-quadruplex) (DNA, aptamer) AACCTGGGGGAGTATTGCGGAGGAAGGT; test: fluorescence, tracer in G4-FID; details: 100 mM KCl, 50 mM Tris-HCl pH 7.0, 0.25 µM DNA, 0.5 µM thiazole orange
[2] = test system: ATP aptamer (ATP aptamer G-quadruplex) (DNA, aptamer) AACCTGGGGGAGTATTGCGGAGGAAGGT; test: G4-FID, thiazole orange displacement; details: 100 mM KCl; 50 mM Tris-HCl pH 7.0; 0.25 µM DNA; 0.5 µM thiazole orange displaced
[3] = test system: ssDNA (DNA, single strand) GAAATTCTTAAGTGCGATCGAG; test: luminescence enhancement of complex 2; details: 50 mM KCl; 20-25 mM Tris-HCl pH 7.0; 1 µM complex, 5 µM DNA; minimal luminescence change
[4] = test system: HTS (DNA, G4) TTAGGGTTAGGGTTAGGGTTAGGG; test: luminescence enhancement of complex 2; details: 50 mM KCl; 20-25 mM Tris-HCl pH 7.0; 1 µM complex, 5 µM DNA; up to 8-fold enhancement
[5] = test system: ATP aptamer duplex (ATP aptamer + complementary strand) (DNA, duplex) AACCTGGGGGAGTATTGCGGAGGAAGGT/ACCTTCCTCCGCAATACTCCCCCAGGTT; test: luminescence enhancement of complex 2; details: none added; 20 mM Tris-HCl pH 7.3, 25°C; slightly emissive without ATP
[6] = test system: H21 (DNA, G4) GGGTTAGGGTTAGGGTTAGGG; test: luminescence enhancement of complex 2; details: 50 mM KCl; 20-25 mM Tris-HCl pH 7.0; 1 µM complex, 5 µM DNA; up to 8-fold enhancement

binding [1] | G4DC50 [2] [µM] | binding [3] | binding [4] | binding [5] | binding [6] | Compound
yes |  |  |  |  |  | CN1C(=Cc2cc[n+](C)c3ccccc23)Sc2ccccc21
 | > 6 |  |  |  |  | [Ir+3].[c-]1ccccc1-c1ccccn1.[c-]1ccccc1-c1ccccn1.c1ccc2nc(-c3ccc4ccccc4n3)ccc2c1
 | 5 | no | yes | weak | yes | [Ir+3].[c-]1ccccc1-c1nccc2ccccc12.[c-]1ccccc1-c1nccc2ccccc12.c1ccc2nc(-c3ccc4ccccc4n3)ccc2c1
